The source of these data is patent US20080070942A1, “PRAZOLE DERIVATIVES AND SALTS THEREOF AND USE OF SAME” (JIANGSU HANSEN PHARMACEUTICAL CO., LTD., priority 2004, published 2008).

One series can be described thus: in vivo. The note with it: dog, 5 mg/kg. Here is the method:
Methods: Six healthy male beagle dogs with weight 5.5˜6.7 kg were randomly divided into three groups for triple cross over administration. They were perfused with rabeprazole, tenatoprazole and compound (II) respectively after one-night fasting. The dose of each drug was 5 mg/kg. Each dog was fed with 50 ml water by gastric perfusion after administration of the drug. 2 ml blood was taken respectively from forelimb saphenous vein at 0.25, 0.5, 1, 2, 3, 4, 5, 6, 7, 8, 10, 12 hours after tenatoprazole was administered, at 5, 10, 20, 30, 40, 50, 60, 75, 90, 120, 180 minutes after rabeprazole was administered, and at 1, 2, 3, 3.5, 4, 4.5, 5, 6, 7, 8, 10, 12 hours after compound (II) was administered, and then put each blood sample in each test tube treated with EDTA, then centrifuging for 10 min at 3500 rpm. The upper plasma was removed from the test tube into another test tube containing 50 μl 2% NaOH solution and reserved at −20[…]. The plasma drug concentration was determined by HPLC. Cross-over administration to dogs was performed one week later.
The calculation method for pharmacokinetic parameters: compartment model is estimated by software DAS1.0. […] T½=0.693/λz, Tmax and Cmax are are measured values.

In series [1] the test system is gastric ulcer model induced by acetic acid in rats. In words: Chronic gastric ulcer model induced by acetic acid in rats. The class given is in vivo. As to conditions: x ± s. Here is the method:
Methods: Abdominal cavities of fasting rats were cut under the anaesthesia of sodium pentobarbital and gently stretched the stomachs. The glandular stomachs near pylons were injected with 20 μl 30% acetic acid and then the abdominal cavities were re-closed. At the day the operation finished, rats were randomly divided into groups and started to be administered with drugs of 10 ml/kg once a day for 10 continuous days. Rats were then sacrificed in the following day when the last drug was administered, and stomachs were taken out and were injected with 10 ml water, and then were put into 3% formaldehyde solution to be fixed for 30 minutes. The stomachs were dissected along their greater curvatures and stretched on a glass plate and the ulcer areas were measured. The significance test was made by t-programme.

Series [2] has as its system gastric acid secretion model induced by pylorus ligation in rats. Put plainly: Effect on gastric acid secretion model induced by pylorus ligation in rats. The format is in vivo, Wistar rat. As to conditions: pylorus-ligated rats, 5 hours after operation. Here is the method: Wistar rat, weight 180-220 g, male, obtained from Institute of Zoology, Chinese Academy of Medical Sciences. Sodium rabeprazole, compound (II) of the present invention and tenatoprazole, provided by Jiangsu Hansen Pharmaceutical Co., Ltd. Added 1 drop of Tween-80 as a solubilizing assistant and prepared the required concentrations with distilled water. Methods: 48-hour fasting rats were divided into groups randomly. Pylon ligation was carried out under ether anaesthesia. […] The rats were sacrificed at 5 hours after the operation and the gastric juice was collected and measured. The content of HCl in gastric juice is determined by titration with 0.1 mol/L NaOH and the significance test was made by t-programme.

For series [3], the system named is gastric ulcer model induced by anhydrous ethanol in rats. Put plainly: Gastric ulcer model induced by anhydrous ethanol in rats. The format is in vivo, Wistar rat. The arrangement: Ulcer area: unit not given beside the values. As to conditions: for ulcer areas, effect in words: anhydrous ethanol ulcer. As to the method: Wistar rat, weight: 180-220 g, male, obtained from Institute of Zoology, Chinese Academy of Medical Sciences. Compound (I) and Compound (II) of the present invention and sodium rabeprazole, provided by Jiangsu Hansen Pharmaceutical Co., Ltd. The required concentration is prepared with distilled water and the volume for administration of drug is 10 ml/kg. Methods: 40-hour fasting rats were randomly divided into groups and treated with different doses of sodium rabeprazole, compound (I), compound (II) and distilled water (as control) by gastric perfusion, respectively. After 0.5 hour, each rat was administered with 1 ml anhydrous ethanol and then rats were sacrificed 1 hour later. The stomachs were taken out and injected with 10 ml fix solution. After fixed in 3% formaldehyde solution, the stomachs were dissected and the ulcer areas were measured. The significance test was made by t-programme.

Series [4] concerns ulcer rat models induced by pylori ligation. In words: Ulcer model induced by pylori ligation in rats. The format is in vivo. As to the method: Methods: Sixty 40 hour-fasting rats were divided into 6 groups according to Table 2. A pylori ligation operation was carried out under the anaesthesia of ether. […] The stomachs were dissected and the number of gastric ulcers was counted. The result was tested by a significance test of t-programme.

Series [5] relates to ulcer model induced by indomethacin in rats. In words: Gastric ulcer model induced by indomethacin in rats. The class given is in vivo, Wistar rats. Here is the method: Wistar rats, weight: 180-220 g, same number of male and female, provided by Institute of Zoology, Chinese Academy of Medical Sciences. (Certification of Qualification of Animal: scxk Beijing 2000-0006) 0.5% methylcellulose sodium: 2 g/L NaHCO3 is contained and pH value is adjusted to 9.0 with NaOH. Preparation: The drug was porphyrized and diluted with 0.5% methylcellulose sodium to the required concentration. It must be used up in 30 minutes. Methods: Sixty 48-hour fasting rats were divided into six groups and gastric-perfused with different doses of compound (II), sodium rabeprazole and 0.5% methylcellulose sodium (as control), respectively. After 0.5 hour, 20 mg/kg indomethacin was injected into the abdominal cavities. Six hours later, rats were sacrificed by cervical dislocation and the stomachs were taken out. After injected with 10 ml water, stomachs were then fixed in 3% formaldehyde solution. The hemorrhagic spots were counted. A significance test was carried out by t-programme.

[6] abbreviates: 20 μmol/kg once a day for 10 days.
Setting [7] is: 60 μmol/kg once a day for 10 days.
The mark [8] stands for this setting: 6.7 μmol/kg through the duodenum.
[9] abbreviates: 20.0 μmol/kg through the duodenum.
The mark [10] stands for this setting: 3 mg/kg by gastric perfusion 0.5 hour before 1 ml anhydrous ethanol.
The mark [11] stands for this setting: 10 mg/kg by gastric perfusion 0.5 hour before 1 ml anhydrous ethanol.

Each structure is given as a SMILES string. Marks after values point to notes of the source that are not given here.

As to `COCCCOc1ccnc(C[S+]([O-])c2nc3ccccc3[nH]2)c1C` (stereo not drawn) [rabeprazole], the half life result in “in vivo” is “less than half hour”.

Turning to `COc1ccc2[nH]c([S+]([O-])Cc3ncc(C)c(OC)c3C)nc2n1` (stereo not drawn) [Tenatoprazole, tenatoprazole], the values for the Ulcer area in series [1] (setting [6]) and in series [1] (setting [7]) were 7.6 ± 3.6 mm^2 and 5.8 ± 3.6* mm^2, respectively. Further, the “Amount of gastric acid” value is given as 0.16 ± 0.06 mmol/stomach in series [2] (setting [8]) and 0.14 ± 0.03 mmol/stomach in series [2] (setting [9]). Further, the entries for the “Amount of gastric juice” value in series [2] (setting [8]) and in series [2] (setting [9]) were 2.8 ± 0.7 ml/stomach and 2.8 ± 0.5 ml/stomach, respectively. Besides, the AUC (as a rule, the area under the concentration-time curve, a measure of exposure) was 18000 ng·h/mL in the series “in vivo” (male, beagle, po, AUC) and 16900 ng·h/mL in “in vivo” (male, beagle, po, AUC^12). The peak level in the series “in vivo” (male, beagle, po, Cmax) (Cmax) was 4280 ng/mL. In addition, the MRT (commonly the average time that molecules of a dose stay in the body) in the series “in vivo” (male, beagle, po, MRT) amounted to 5.4 h. Besides, the half-life (usually the time in which the quantity being followed falls by half) in “in vivo” (male, beagle, po, T1/2) was 3.74 h.

`COCCCOc1ccnc(C[S+]([O-])c2nc3cc(OC(F)F)ccc3[n-]2)c1C.[Na+]` (stereo not drawn) [Compound (I)]: the Ulcer area in series [3] (setting [10]) came to 12.1 ± 18.1; in series [3] (setting [11]), 5.5 ± 9.9. In addition, the “ulcer areas, effect in words” value in series [3] is “more significant effect”.

On to `COCCCOc1ccnc(C[S+]([O-])c2nc3ccccc3[nH]2)c1C` (stereo not drawn) [Sodium Rabeprazole], for which the No. of ulcers in series [4] (40 μmol/kg through duodenum, pylori ligation, 18 hours, x ± s) is recorded as 8.9 ± 14.7; in series [5] (40 μmol/kg gastric perfusion, indomethacin 20 mg/kg, x ± s) it was 3.1 ± 4.6. Besides, the “Inhibition rate” value in series [4] (40 μmol/kg, pylori ligation ulcer) turned out to be 63.2%; in series [5] (40 μmol/kg, indomethacin ulcer) it was 72.3%. In addition, the “ulcers in the rats, effect in words” value in series [4] (pylori ligation ulcer) is listed as “essentially same function”. The Ulcer area in series [1] (setting [6]) is recorded as 6.2 ± 3.5 mm^2; in series [1] (setting [7]), 4.8 ± 3.1** mm^2; in series [3] (setting [10]) it was 26.4 ± 20.6; in series [3] (setting [11]) it was 11.1 ± 2.7. The “ulcer areas, effect in words” value in series [3] is “reduced”. The “Amount of gastric acid” value amounted to 0.25 ± 0.10 mmol/stomach in series [2] (setting [8]) and 0.17 ± 0.08 mmol/stomach in series [2] (setting [9]). Besides, the entries for the “Amount of gastric juice” value in series [2] (setting [8]) and in series [2] (setting [9]) were 4.0 ± 0.7 ml/stomach and 3.7 ± 0.8 ml/stomach, respectively. Besides, the “hemorrhagic spots on gastric mucosal induced by indomethacin, effect in words” value in series [5] (gastric perfusion) is reported as “lower than that of compound (II)”.
